Where a name gives a salt, the structure may show the parent alone.
Legend:
[1] = Pharmacokinetic parameters for single oral doses; format: in vivo, human
[2] = test system: progressing desmoid tumors/aggressive fibromatosis (DT/AF); format: in vivo
Description: A Phase 3, double-blind, placebo-controlled study is being conducted to determine the efficacy and safety of nirogacestat dihydrobromide in participants with progressing desmoid tumors. A Phase 1 solid tumor study provided preliminary efficacy (Messersmith, W., et al., “A Phase I, dose-finding study in patients with advanced solid malignancies of the oral γ-secretase inhibitor PF-03084014,” Clin. Cancer Res., 21:60-7 (2015)), including long-term durable responses and safety of nirogacestat in desmoid participants (Villalobos, V. M., et al., “Long-Term Follow-Up of Desmoid Fibromatosis Treated with PF-03084014, an Oral Gamma Secretase Inhibitor, Ann. Surg. Oncol., 25:768-75 (2018)). These encouraging results lead to a Phase 2 study in participants with progressing desmoid tumors (Kummar, S., et al., “Clinical Activity of the γ-Secretase Inhibitor PF-03084014 in Adults with Desmoid Tumors (Aggressive Fibromatosis), J. Clin. Oncol., 35:1561-69 (2017)). […] Importantly, participants in the responder group had failed previous systemic therapies (imatinib or sorafenib) indicating a need for alterative therapeutic options for this patient population.
Overall Design: The Phase 3 study will be a multi-center, randomized, double-blind, placebo-controlled, event-driven to compare the efficacy, safety, and tolerability of nirogacestat and placebo in adult participants with progressing DT/AF. This study will consist of 2 phases, a double-blind and an optional open-label extension (OLE) phase.
Following disease progression (confirmed by central review using RECIST v1.1), or completion of the double-blind phase (once the required number of events have been observed and the primary PFS analysis has been completed), participants' treatment assignment will be unblinded, and if eligible, participants will have the option to enroll in the optional OLE phase.
• 1. Participant has DT/AF that has progressed by ≥20% as measured by RECIST v1.1 within the 12-month period prior to first dose of study treatment. • 2. Participant has: • a. Newly diagnosed, measurable progressing DT/AF that is not amenable to surgical resection or radiation therapy; • OR • b. Recurrent, progressing DT/AF following CR to initial therapy; • OR • c. Preexisting DT/AF and has previously received therapy and the residual tumor has progressed. • 3. Participant agrees to provide archival or new tumor tissue for confirmation of disease. • 4. If participant was previously treated with an investigational therapy for treatment of DT/AF, participant must have completed prior therapy at least 28 days prior to signing informed consent. All toxicities from prior therapy must resolve to ≤Grade 1 or baseline. • 5. Participants who are receiving nonsteroidal anti-inflammatory drugs (NSAIDs) as treatment for conditions other than DT/AF must be receiving them prior to the observed progression (inclusion criteria 1) for: • a. Chronic scheduled daily use (defined as stable for 28 days prior to signing informed consent); or • b. Occasional use (defined as ≤3 days per week) for the treatment of pain or as an anti-inflammatory in licensed conditions such as headache, arthritis, etc. • c. Participant has an Eastern Cooperative Oncology Group (ECOG) performance status ≤2 at screening. • 6. Participant has adequate organ and bone marrow function as defined by the following Screening laboratory values: • a. Absolute neutrophil count ≥1500/μL; • b. Platelets ≥100×10^3/μL; • c. Hemoglobin ≥9 g/dL; • d. Total bilirubin ≤1.5× upper limit of normal (ULN) (isolated bilirubin >1.5×ULN is acceptable if bilirubin is fractionated and direct bilirubin <35%); • e. Aspartate aminotransferase (AST) (serum glutamic oxaloacetic transaminase)/alanine aminotransferase (ALT) (serum glutamic pyruvate transaminase)≤2×ULN; and • f. […] Participant can swallow tablets and has no gastrointestinal conditions affecting absorption. […]

[3] = test system: progressing desmoid tumors; conditions: Phase 2, participants with progressing desmoid tumors; cited from earlier work
[4] = Min, COHORT 1: 150 mg (3 × 50 mg), Period 1
[5] = intent-to-treat population, n = 70

SMILES	CL/F ([1]; Max, COHORT 1: 150 mg (1 × 150 mg), Period 2) [L/h]	Half-life ([1]; Max, COHORT 1: 150 mg (3 × 50 mg), Period 1) [h]	CL/F ([1]; Max, COHORT 3: 50 mg, Period 1) [L/h]	CL/F ([1]; Median, COHORT 1: 150 mg (3 × 50 mg), Period 1) [L/h]	AUCinf [1, 4] [ng·h/mL]	AUClast [1, 4] [ng·h/mL]	most frequent adverse reactions requiring a dose reduction or interruption ([2]; in vivo)	Best overall response, n (%): Complete response [2, 5]	Best overall response, n (%): Not evaluable [2, 5]	Best overall response, n (%): Partial response [2, 5]	Best overall response, n (%): Progressive disease [2, 5]	Best overall response, n (%): Stable disease [2, 5]	Disease control rate, n (%) [2, 5]	Time to response, months, median (range) [2, 5]	progression-free survival (PFS), hazard ratio (HR) ([2]; nirogacestat over placebo, 150 mg twice daily, p<0.001)	progression while on therapy [3]
CCC[C@H](N[C@H]1CCc2cc(F)cc(F)c2C1)C(=O)Nc1cn(C(C)(C)CNCC(C)(C)C)cn1 [nirogacestat dihydrobromide]	82.0	32.0	660	57.0	2160	2080										
CCC[C@H](N[C@H]1CCc2cc(F)cc(F)c2C1)C(=O)Nc1cn(C(C)(C)CNCC(C)(C)C)cn1 (single isomer, unassigned) [nirogacestat]							diarrhea, rash maculo-papular, hypophosphatemia, stomatitis, folliculitis, and fatigue	5 (7) n (%)	4 (6) n (%)	24 (34) n (%)	1 (1) n (%)	35 (50) n (%)	64 (91) n (%)	5.6 (2.6, 19.4) months	0.29	no participants progressing while on therapy
